{"source": "patent US20030088061A1", "about": "“Materials and methods to modulate ligand binding/enzymatic activity of alpha/beta proteins containing an allosteric regulatory site” (priority 2000, published 2003)", "key": {"Rac1": {"target": "T1, Rac1 (Homo sapiens, UniProt P63000)", "T1 construct": "GST (cleaved yes); made in house; host or cells: E. coli", "assay": "Tiam1-catalyzed guanine nucleotide exchange of Rac1", "type": "biochemical", "settings": "in the presence of Tiam1; read-out: IC50, Rac1 guanine nucleotide exchange reaction", "description": "Rac1 was expressed in E. coli as a GST fusion protein using the vector pGEX2T in accordance with previously described methods [Self and Hall, Meth. Enzymol. 256:3 (1995)]. Purified thrombin-cleaved Rac1 protein was used in the assay.\nThe Tiam1 DH-PH domain expressed as a fusion protein containing a carboxy terminal 6XHis tag using the plasmid pET28a described by Rossman and Campbell, Meth. Enzymol. 325:25 (2000).\nThe Tiam1-catalyzed exchange of GDP for GTP of Rac1 was carried out essentially according to the procedure described by Crompton et al., J. Biol.Chem. 275(33):25751 (2000). GDP-bound Rac1 was incubated with [α^32P]-labeled GTP, in the presence of Tiam1 and nucleotide exchange was monitored by following the increase in radioactivity bound to Rac1. Free radioactivity was removed by placing the reaction mixture in the well of a 96-well plate and filtering out the fraction of [α^32P]GTP that is not bound to Rac1. During the screen for the nucleotide exchange antagonists, the compounds were used at 10 μM concentration. The compounds analyzed by the screening methods are further described below.\nCompounds that inhibit the Rac1 guanine nucleotide exchange reaction by at least 50% of the control were obtained. The IC50 value of several of the compounds were determined for the guanine nucleotide exchange reaction of Rac1, in the presence of Tiam1."}, "CD11b (Mac-1)": {"target": "T2, CD11b (Mac-1) (Homo sapiens, UniProt P11215)", "T2 construct": "endogenous in cells; host or cells: neutrophils from fresh human blood", "assay": "CD11b-mediated neutrophil adhesion to fibrinogen", "type": "cell-based", "description": "The adhesion assay described above for CD18/CD11b-(Mac-1)-mediated adhesion of HL-60 cells to ICAM-1 was carried out with the following modifications. Each well was coated overnight at 4° C. with 50 μl of glycophorin (10 μg/ml), fibrinogen (5 μg/ml) or with anti-CD18 monoclonal antibody (22F12C, 5 μg/ml) and anti-CD11b monoclonal antibody (44AACB, 5 μg/ml) in 50 mM bicarbonate buffer (pH 9.6). Plates were blocked with 1% human serum albumin and no blocking antibody was used. Neutrophils were isolated from fresh heparin whole human blood by density gradient centrifugation and 100 μl of the cells (4×10^6 cells/ml) in adhesion buffer was added to each well. Plates were incubated at 37° C. for 10 minutes."}, "CD11b/CD18": {"target": "T3, CD11b/CD18 (Homo sapiens, UniProt P11215)", "T3 construct": "expressed in transfected cells; host or cells: JY (human B lymphoblastoid) cells", "assay": "Adhesion of JY/CD11b cells to immobilized iC3b", "type": "cell-based", "settings": "dose-dependent; relative to control DMSO treatment", "description": "B. Adhesion Assay of JY/CD11b Cells to Immobilized iC3b\nBriefly, each well of a 96-well plate was coated overnight at 4° C. with 50 μl glycophorin (10 μg/ml), iC3b (5 μg/ml) or with anti-CD18 monoclonal antibody (22F12C, 5 μg/ml) and anti-CD11b monoclonal antibody (44AACB, 5 µg/ml) in bicarbonate buffer (pH 9.6). Plates were blocked with human serum albumin in D-PBS for one hr at room temperature. JY cells transfected with CD11b (JY/CD11b cells) (100 μl at 1×10^6 cells/ml) in adhesion buffer were added to each well and incubation was carried out at 37° C. for 30 min. Plates were fixed and analyzed as described above in Example 1. Percentage of cells binding was determined using the equation below. [formula]\nData was normalized using the formula: [formula]"}, "ftsZ [1]": {"target": "T4, ftsZ (Escherichia coli, UniProt P0A9A6)", "T4 sequence (P0A9A6 whole entry)": "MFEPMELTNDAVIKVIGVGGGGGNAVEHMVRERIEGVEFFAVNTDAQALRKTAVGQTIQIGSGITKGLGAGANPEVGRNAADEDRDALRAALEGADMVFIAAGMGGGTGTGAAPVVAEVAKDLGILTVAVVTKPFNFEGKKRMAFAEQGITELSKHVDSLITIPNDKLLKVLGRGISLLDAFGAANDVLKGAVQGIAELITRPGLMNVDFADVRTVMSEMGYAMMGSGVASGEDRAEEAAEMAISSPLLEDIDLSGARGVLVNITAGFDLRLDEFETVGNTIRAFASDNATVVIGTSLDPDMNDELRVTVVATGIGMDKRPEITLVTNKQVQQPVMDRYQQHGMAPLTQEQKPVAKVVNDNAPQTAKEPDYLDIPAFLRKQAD", "assay": "ftsZ GTPase assay", "type": "biochemical", "description": "An alternative assay that may be more sensitive was also devised. In this assay, 100 μg/ml ftsZ was incubated with 0.5 μM ^32P-γ-GTP. The GTPase activity of ftsZ liberates ^32PO4. By terminating the reaction with 25 mg/ml activated charcoal in 100 mM NaH2PO4 and centrifuging the product, the remaining ^32P-γ-GTP is trapped by the charcoal. Accordingly, the ^32PO4 that remains in the supernatant can be measured, providing a measurement of GTPase inhibition."}, "ftsZ [2]": {"target": "T4, ftsZ", "assay": "ftsZ polymerization assay", "type": "biochemical", "settings": "read-out: IC50, ftsZ polymerization screen", "description": "A polymerization assay for the identification of ftsZ inhibitors that can be performed in microtiter wells has been devised. The polymerization assay is an adaptation of a tubulin polymerization assay [Bollag et al., Cancer Research 55:2325-2333 (1995)], and involves the reversible polymerization of ftsz in a GTP-dependent fashion.\nIn the presence of GTP and 10 mM CaCl2, 5 nm ftsZ linear polymers assemble into higher order polymers [Yu et al., EMBO 16:5455-5463 (1997)] that are large enough to be trapped by a 0.2 μm filter. The protein that is retained on the filter can be stained and detected in a colorimetric assay. A reaction consisting of 300 μg/ml of ftsZ polymerized by 100 μM GTP was screened against candidate ftsZ inhibitors at 10 μM."}, "[3]": {"tested_on": "permeable tolC strain (plasmid only)", "assay": "microbe, parasite or virus in culture", "type": "cell-based, E. coli", "settings": "Escherichia coli, read-out: MIC, control strain", "description": "(§1) A permeable bacteria] strain (AB734 TN10::tolC) was used in the screening method to maximize the ability of the compounds to cross the gram negative cell wall. Assays were conducted in accordance with the NCCLS protocols referenced herein.\n(§2) It was of further interest to determine whether those compounds with antimicrobial activity worked in a ENR-dependent fashion. Two strains of the permeable tolC strain were constructed. In the first strain, the ENR protein was overexpressed by placing it under control of its own promoter on a moderate copy number plasmid, and the second strain served as a control including only the plasmid."}, "[4]": {"tested_on": "permeable tolC strain overexpressing ENR", "assay": "microbe, parasite or virus in culture", "type": "cell-based, E. coli", "settings": "Escherichia coli, read-out: MIC, ENR-overexpressing strain", "description": "as §1, §2"}, "[5]": {"target": "iC3b (Homo sapiens (Human)) (UniProt P01024)", "assay": "adhesion of COS-7 transfectants to immobilized iC3b"}, "[6]": {"target": "ICAM-1/Fc (Homo sapiens (Human)) (UniProt P05362)", "assay": "adhesion of COS-7 transfectants to immobilized ICAM-1/Fc"}, "[7]": {"settings": "after SAR efforts based on Cmpd S, read-out: IC50 (inhibition potency), neutrophil adhesion to fibrinogen"}, "[8]": {"settings": "read-out: IC50, neutrophil adhesion to fibrinogen"}}, "note": "Values joined by “and” are separate entries in the source; they are usually repeats but may differ in a detail not shown here. Identical values can stand only once. Like-named read-outs stand apart in the source and are kept apart here.", "data": [{"compound": "CSc1ccc(-c2ccnc(N3CCC(C)CC3)c2)cc1C(C)(F)F", "note": "[Cmpd AAA]", "values": [{"measurement": "IC50", "setting": "Rac1", "result": 3.5, "unit": "µM"}]}, {"compound": "CC(C)Sc1ccc(-c2ccnc(N3CCCC(C)(C)C3)c2)cc1C(F)(F)F", "note": "[Cmpd AAB]", "values": [{"measurement": "IC50", "setting": "Rac1", "result": 4.7, "unit": "µM"}]}, {"compound": "CC(C)Sc1ccc(-c2ccnc(N3CCC(NC(=O)OC(C)(C)C)CC3)c2)cc1C(F)(F)F", "note": "[Cmpd AAC]", "values": [{"measurement": "IC50", "setting": "Rac1", "result": 5, "unit": "µM"}]}, {"compound": "CC(CN(C)C)NCc1ccccc1Sc1ccc(C(C)(C)C)cc1", "note": "(stereo not drawn) [Cmpd AA]", "values": [{"measurement": "IC50", "setting": "CD11b (Mac-1); [7]", "result": "< 0.2", "unit": "µM"}]}, {"compound": "CN(C)CCCCNCc1ccccc1Sc1c(Cl)cccc1Cl", "note": "[Cmpd AC]", "values": [{"measurement": "IC50", "setting": "CD11b (Mac-1); [7]", "result": "< 0.2", "unit": "µM"}]}, {"compound": "CN(CCCNCc1ccccc1Sc1c(Cl)cccc1Cl)c1ccccc1", "note": "[Cmpd AY]", "values": [{"measurement": "IC50", "setting": "Rac1", "result": 1.9, "unit": "µM"}]}, {"compound": "CN(CCCNCc1ccccc1Sc1cc(Cl)cc(Cl)c1)c1ccccc1", "note": "[Cmpd AZ]", "values": [{"measurement": "IC50", "setting": "Rac1", "result": 3.1, "unit": "µM"}]}, {"compound": "O=[N+]([O-])c1cc(Cl)c(Sc2ccc(Cl)cc2Cl)cc1F", "note": "[Cmpd C]", "values": [{"measurement": "stimulation of CD11b/CD18 binding to iC3b", "setting": "CD11b/CD18", "result": "two times"}]}, {"compound": "CC(C)c1ccccc1Sc1ccc(/C=C/C(=O)N2CCN(C(=O)OC(C)(C)C)C(CO)C2)cc1[N+](=O)[O-]", "note": "(stereo not drawn) [Cmpd F]", "values": [{"measurement": "IC50", "setting": "CD11b (Mac-1); [8]", "result": "< 10", "unit": "µM"}]}, {"compound": "CCCCC(CCCC)N(C(=O)CN1CC(c2ccc3c(c2)OCO3)C(C)C1C(C)(C)CCCC)c1ccc(F)c(C)c1", "note": "(stereo not drawn) [Cmpd H]", "values": [{"measurement": "stimulation of CD11b/CD18 binding to iC3b", "setting": "CD11b/CD18", "result": "two times"}]}, {"compound": "CCCCC(CCCC)N(C(=O)CN1CC(c2ccc3ccccc3c2)C(C(=O)O)C1c1ccc(OC)cc1)c1ccc(F)c(C)c1", "note": "(stereo not drawn) [Cmpd I]", "values": [{"measurement": "stimulation of CD11b/CD18 binding to iC3b", "setting": "CD11b/CD18", "result": "two times"}]}, {"compound": "O=C(/C=C/c1ccc(Sc2ccccc2CN2CCOCC2)c(Cl)c1)N1CCOCC1", "note": "[Cmpd L]", "values": [{"measurement": "IC50", "setting": "CD11b (Mac-1); [8]", "result": "< 10", "unit": "µM"}]}, {"compound": "CN(C)CCCCNCc1ccc(Sc2ccc(Cl)cc2Cl)c(Cl)c1", "note": "[Cmpd N]", "values": [{"measurement": "IC50", "setting": "CD11b (Mac-1); [8]", "result": "< 10", "unit": "µM"}]}, {"compound": "CN(C)CCCCNCc1ccccc1Sc1ccc(Cl)cc1Cl", "note": "[Cmpd O]", "values": [{"measurement": "IC50", "setting": "CD11b (Mac-1); [8]", "result": "< 10", "unit": "µM"}]}, {"compound": "CN(C)CCN(Cc1ccc(Sc2ccc(Cl)cc2Cl)c(Cl)c1)C(=O)c1ccc(/C=C/C(=O)N2CCOCC2)cc1Cl", "note": "[Cmpd P]", "values": [{"measurement": "IC50", "setting": "CD11b (Mac-1); [8]", "result": "< 10", "unit": "µM"}]}, {"compound": "CN(C)CCN(Cc1ccccc1Sc1ccc(Cl)cc1Cl)C(=O)c1ccc(/C=C/C(=O)N2CCOCC2)cc1Cl", "note": "[Cmpd Q]", "values": [{"measurement": "IC50", "setting": "CD11b (Mac-1); [8]", "result": "< 10", "unit": "µM"}]}, {"compound": "CN(C)CCNCc1ccc(Sc2ccc(Cl)cc2Cl)c(Cl)c1", "note": "[Cmpd R]", "values": [{"measurement": "IC50", "setting": "CD11b (Mac-1); [8]", "result": "< 10", "unit": "µM"}]}, {"compound": "CN(C)CCNCc1ccccc1Sc1ccc(Cl)cc1Cl", "note": "[Cmpd S]", "values": [{"measurement": "IC50", "setting": "CD11b (Mac-1); [8]", "result": "< 10 µM and 1 µM"}]}, {"compound": "COC(=O)N1CCN(C(=O)/C=C/c2ccc(Sc3ccccc3C(C)C)c([N+](=O)[O-])c2)CC1", "note": "[Cmpd V]", "values": [{"measurement": "IC50", "setting": "CD11b (Mac-1); [8]", "result": "< 10", "unit": "µM"}]}, {"compound": "Nc1nc2c(ncn2[C@@H]2O[C@H](COP(=O)(O)OP(=O)(O)O)[C@@H](O)[C@H]2O)c(=O)[nH]1", "note": "[GDP]", "values": [{"measurement": "IC50", "setting": "ftsZ [1]", "result": 8, "unit": "µM"}, {"measurement": "IC50", "setting": "ftsZ [2]", "result": 250, "unit": "µM"}]}, {"compound": "Oc1cc(Cl)ccc1Oc1ccc(Cl)cc1Cl", "note": "[triclosan]", "values": [{"measurement": "MIC", "setting": "[3]", "result": 0.031, "unit": "µg/mL"}, {"measurement": "MIC", "setting": "[4]", "result": 1, "unit": "µg/mL"}]}, {"compound": "CD11b E336A / CD18 (from UniProt P11215) (receptor)", "values": [{"measurement": "binding, %", "setting": "[5]", "result": 4.3, "unit": "%"}, {"measurement": "binding, %", "setting": "[6]", "result": 0.7, "unit": "%"}]}, {"compound": "CD11b F333A / CD18 (from UniProt P11215) (receptor)", "values": [{"measurement": "binding, %", "setting": "[5]", "result": 4.9, "unit": "%"}, {"measurement": "binding, %", "setting": "[6]", "result": 1.1, "unit": "%"}]}, {"compound": "CD11b I332A / CD18 (from UniProt P11215) (receptor)", "values": [{"measurement": "binding, %", "setting": "[5]", "result": 205, "unit": "%"}, {"measurement": "binding, % of wildtype levels (% of wildtype levels)", "setting": "[6]", "result": 123}]}, {"compound": "CD11b Q327A / CD18 (from UniProt P11215) (receptor)", "values": [{"measurement": "binding, %", "setting": "[5]", "result": 140, "unit": "%"}, {"measurement": "binding, % of wildtype levels (% of wildtype levels)", "setting": "[6]", "result": 105}]}, {"compound": "CD11b V254A / CD18 (from UniProt P11215) (receptor)", "values": [{"measurement": "binding, %", "setting": "[5]", "result": 147, "unit": "%"}, {"measurement": "binding, % of wildtype levels (% of wildtype levels)", "setting": "[6]", "result": 115}]}]}
